Results from ChEMBL document CHEMBL1201862, “PubChem BioAssay data set” (2004).
Active and inactive are the calls of the source.

Assays:
BJ [1] = test: cytotoxicity toward BJ-TERT-LT-ST fibroblasts, dose response, cell-based, RAS-independent, luminescence (AID 1935); format: functional; conditions: Homo sapiens;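 note: BJ fibroblasts immortalized with TERT plus LT and ST oncogenes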
Beta-galactosidase = Beta-galactosidase (Escherichia coli, UniProt Q8VNN2); test: PubChem AID 485352; format: functional
[2] = tested on: Streptococcus sp. 'group A'; test: growth inhibition of control SK(-) GAS strain, dose response, counter-screen for streptokinase expression inhibitor project, luminescence, kanamycin, BacTiterGlo, confirmation (AID 1900); format: functional, organism-based
BJ [3] = test: cells; format: functional, cell-based; conditions: Homo sapiens
Large T antigen = Large T antigen (Simian virus 40, UniProt P03070); format: functional, Betapolyomavirus macacae;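 note: Confirmatory-stage PubChem screen for compounds that inhibit SV40 T antigen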
[4] = target: T1, High affinity choline transporter 1 (Homo sapiens, UniProt Q9GZV3); test: CHT inhibitors, dose response, cell-based, 5-point CRC, membrane potential dye (AID 504840); format: functional
T1 sequence (Q9GZV3 whole entry): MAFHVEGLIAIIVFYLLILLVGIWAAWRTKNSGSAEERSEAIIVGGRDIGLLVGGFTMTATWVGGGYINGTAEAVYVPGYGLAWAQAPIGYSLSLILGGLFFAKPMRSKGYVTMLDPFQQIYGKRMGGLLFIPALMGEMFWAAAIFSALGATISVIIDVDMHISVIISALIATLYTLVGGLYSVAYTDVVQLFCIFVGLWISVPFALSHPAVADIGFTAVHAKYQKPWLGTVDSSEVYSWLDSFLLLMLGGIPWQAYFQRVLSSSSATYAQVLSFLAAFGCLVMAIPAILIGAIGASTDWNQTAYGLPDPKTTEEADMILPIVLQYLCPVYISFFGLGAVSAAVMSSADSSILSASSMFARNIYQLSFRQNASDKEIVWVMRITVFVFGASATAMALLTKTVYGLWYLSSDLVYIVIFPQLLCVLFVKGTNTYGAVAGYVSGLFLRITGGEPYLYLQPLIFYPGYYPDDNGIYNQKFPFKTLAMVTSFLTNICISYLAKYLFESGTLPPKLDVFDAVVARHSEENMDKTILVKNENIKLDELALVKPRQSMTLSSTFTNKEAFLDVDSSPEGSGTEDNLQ

Beta Lactamase = Beta Lactamase (Pseudomonas aeruginosa, UniProt Q932Y6); test: beta-lactamase reporter inhibitor potency, dose response, artefact control for TLR9-MyD88 binding inhibitor project, BLA reporter cells, FRET fluorescence (AID 588341); format: cell-based;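 note: cell based assay in CHO-K1 cells stably expressing beta-lactamase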
[5] = Fluorescence-based cell-based high throughput dose response assay for inhibitors of the interaction of nucleotide-binding oligomerization domain containing 2 (NOD2) and the receptor-interacting serine-threonine kinase 2 (RIPK2).; format: functional; conditions: Homo sapiens
[6] = target: T2, Type-1 angiotensin II receptor (Homo sapiens, UniProt P30556); test: AT1 receptor antagonists, dose response, selectivity assay for APJ receptor antagonist project, cell-based, uHTS hits (AID 463214); format: functional;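 note: antagonist potency against angiotensin II stimulated AT1 response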
T2 sequence (P30556 whole entry): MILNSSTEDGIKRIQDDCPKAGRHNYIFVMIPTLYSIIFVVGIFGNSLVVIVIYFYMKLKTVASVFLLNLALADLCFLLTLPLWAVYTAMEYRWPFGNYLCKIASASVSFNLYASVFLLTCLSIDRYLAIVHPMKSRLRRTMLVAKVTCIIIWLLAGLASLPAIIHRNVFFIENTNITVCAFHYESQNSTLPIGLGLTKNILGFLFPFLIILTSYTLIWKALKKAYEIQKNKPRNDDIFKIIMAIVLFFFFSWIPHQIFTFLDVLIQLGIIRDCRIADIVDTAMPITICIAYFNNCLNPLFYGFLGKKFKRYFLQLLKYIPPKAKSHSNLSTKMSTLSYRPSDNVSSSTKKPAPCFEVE

[7] = target: T1, High affinity choline transporter 1; test: CHT inhibitors, dose response, cell-based, 10-point CRC, membrane potential dye (AID 588401); format: functional;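 note: membrane potential dye fluorescence of choline-evoked depolarization via CHT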
CHO = test: cytotoxicity in TLR9-MyD88 CHO cells, dose response, cytotoxicity control for TLR9-MyD88 binding inhibitor project, cell-based, luminescence (AID 588339); format: functional, hamster; conditions: Cricetulus griseus;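 note: CHO cells stably coexpressing TLR9 and MyD88 fusions from primary screen; compound exposure lasted 48 hours before viability readout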
[8] = target: T3, Heat shock factor protein 1 (Mus musculus, UniProt P38532); test: HSF1 potentiators in luciferase reporter cells, confirmation, cell-based, NIH3T3, luminescence, dose retest (AID 435004); format: functional;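 note: stress induced by proteasome inhibitor MG132 added 30 min after compound; luciferase reporter driven by HSF1 response element in NIH3T3 cells; actives raise luminescence as potentiators of the MG132 stress response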
T3 sequence (P38532 whole entry): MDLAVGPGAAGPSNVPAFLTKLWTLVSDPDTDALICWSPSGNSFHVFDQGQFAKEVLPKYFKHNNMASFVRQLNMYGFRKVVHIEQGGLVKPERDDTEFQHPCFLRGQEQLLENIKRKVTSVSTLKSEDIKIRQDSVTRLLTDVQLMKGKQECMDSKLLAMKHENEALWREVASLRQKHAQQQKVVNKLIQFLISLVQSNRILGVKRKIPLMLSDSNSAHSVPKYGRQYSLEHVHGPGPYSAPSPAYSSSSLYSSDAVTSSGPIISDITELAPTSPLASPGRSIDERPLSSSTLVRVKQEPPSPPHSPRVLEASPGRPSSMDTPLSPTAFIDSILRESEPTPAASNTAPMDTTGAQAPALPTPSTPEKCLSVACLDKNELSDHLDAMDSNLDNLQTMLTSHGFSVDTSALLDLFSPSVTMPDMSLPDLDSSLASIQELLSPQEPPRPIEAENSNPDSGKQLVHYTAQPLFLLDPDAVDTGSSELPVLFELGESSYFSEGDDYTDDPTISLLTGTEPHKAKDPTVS

[9] = cytotoxicity toward DRD oncogenic fibroblasts, dose response, cell-based, non-viral oncogenic, luminescence (AID 1934); format: functional; conditions: Homo sapiens
[10] = inhibitors of intracellular T. cruzi replication, confirmation, NIH3T3 host cells, beta-gal luminescence (AID 2044); format: functional, cell-based;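 note: intracellular parasites grown in NIH/3T3 mouse fibroblasts as host cells; luminescent beta-galactosidase reporter signal from transgenic T. cruzi replicating inside host cells; inhibitors lower the luminescence signal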
BJ [11] = test: cytotoxicity toward BJ-TERT fibroblasts, dose response, cell-based, RAS-independent, luminescence (AID 1933); format: functional; conditions: Homo sapiens
Streptococcus = test: Group A Streptococcus viability loss, dose response, counter-screen for streptokinase expression inhibitor project, luminescence, BacTiterGlo (AID 1915); format: functional, organism-based;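 note: potency for reduction of bacterial viability or growth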
Streptokinase A = target: T4, Streptokinase A (Streptococcus pyogenes serotype M1, UniProt P10520); test: S. pyogenes streptokinase expression inhibitors, potency, dose response, plasminogen activation absorbance, OD405 (AID 1914); format: functional, Streptococcus pyogenes M1 GAS;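 note: secreted streptokinase activity via plasminogen activation per viability signal from cell pellet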
T4 sequence (P10520 whole entry): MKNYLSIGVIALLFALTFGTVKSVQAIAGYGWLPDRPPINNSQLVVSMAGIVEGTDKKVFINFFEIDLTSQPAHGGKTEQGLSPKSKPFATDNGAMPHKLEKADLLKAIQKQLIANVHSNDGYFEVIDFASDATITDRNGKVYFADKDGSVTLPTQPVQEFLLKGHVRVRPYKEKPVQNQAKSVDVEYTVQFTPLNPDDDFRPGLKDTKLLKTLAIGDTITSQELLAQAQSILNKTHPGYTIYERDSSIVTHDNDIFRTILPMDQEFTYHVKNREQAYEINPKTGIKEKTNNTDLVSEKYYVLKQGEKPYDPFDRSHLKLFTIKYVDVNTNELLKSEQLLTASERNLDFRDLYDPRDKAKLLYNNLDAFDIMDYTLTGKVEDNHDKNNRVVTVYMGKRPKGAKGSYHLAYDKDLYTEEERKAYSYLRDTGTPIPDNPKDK

[12] = cytotoxicity toward NIH3T3 fibroblasts, dose response, counter-screen, cell-based, ATP luminescence, mouse fibroblasts (AID 2010); format: functional;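 note: cells exposed to compound for about 90 hours before reading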
[13] = target: T5, Neuropeptides B/W receptor type 1 (Homo sapiens, UniProt P48145); test: GPR7 antagonist potency, late-stage follow-up, cell-based, fluorescence, dose response, set 6 (AID 588583); format: functional
T5 sequence (P48145 whole entry): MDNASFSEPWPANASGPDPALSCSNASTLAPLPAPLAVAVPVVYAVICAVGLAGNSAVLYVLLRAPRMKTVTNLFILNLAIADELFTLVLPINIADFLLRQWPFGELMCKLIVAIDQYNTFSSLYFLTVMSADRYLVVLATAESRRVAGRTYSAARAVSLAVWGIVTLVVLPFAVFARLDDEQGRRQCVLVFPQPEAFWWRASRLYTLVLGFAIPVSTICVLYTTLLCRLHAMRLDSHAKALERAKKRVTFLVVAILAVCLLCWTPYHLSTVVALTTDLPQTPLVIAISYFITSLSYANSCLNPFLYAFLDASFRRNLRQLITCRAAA

[14] = target: Melanin-concentrating hormone receptor 1 (Homo sapiens, UniProt Q99705); test: Late-stage fluorescence-based counterscreen for antagonists of the G-protein coupled receptor 7 (GPR7): cell-based dose response assay to identify antagonists of the melanin-concentrating hormone receptor 1 (MCHR1) Set 6.; format: functional
[15] = Vero cell cytotoxicity, dose response, cytotoxicity control for M. tuberculosis growth inhibitor project, Vero cells, purified and synthesized compounds, set 4 (AID 504854); format: functional; conditions: Mycobacterium tuberculosis
[16] = microbe, parasite or virus in culture; format: functional; conditions: Mycobacterium tuberculosis
[17] = THP-1 cell cytotoxicity, dose response, cytotoxicity control, set 3 (AID 504852); format: functional; conditions: Mycobacterium tuberculosis
CAAX prenyl protease 2 = target: T6, CAAX prenyl protease 2 (Homo sapiens, UniProt Q9Y256); test: human Rce1 protease inhibitors, dose response, biochemical, yeast membranes, quenched-peptide fluorescence, cherry-pick (AID 588849)
T6 sequence (Q9Y256 whole entry): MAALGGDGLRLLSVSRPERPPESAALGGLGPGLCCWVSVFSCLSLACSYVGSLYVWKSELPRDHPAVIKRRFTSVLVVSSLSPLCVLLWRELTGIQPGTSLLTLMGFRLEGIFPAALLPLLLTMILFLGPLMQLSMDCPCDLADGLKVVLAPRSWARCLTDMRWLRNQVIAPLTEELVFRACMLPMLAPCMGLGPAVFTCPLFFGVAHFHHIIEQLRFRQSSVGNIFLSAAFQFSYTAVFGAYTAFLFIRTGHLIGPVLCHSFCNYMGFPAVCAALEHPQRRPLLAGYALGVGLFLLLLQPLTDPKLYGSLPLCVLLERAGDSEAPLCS

[18] = THP-1 cell cytotoxicity, cytotoxicity control, set 4 (AID 504911); format: functional; conditions: Mycobacterium tuberculosis
CAAX prenyl protease 1 = CAAX prenyl protease 1 (Saccharomyces cerevisiae S288c, UniProt P47154); test: Ste24 protease inhibitors, dose response, biochemical, S. cerevisiae, plate reader, cherry-pick (AID 488815)
[19] = A Cell Based Secondary Assay to Explore Cytotoxicity in HepG2 Cells of Compounds that Modulate Mycobacterium tuberculosis in Media Containing Glycerol versus Media without Glycerol (2).; format: functional
[20] = A Cell Based Secondary Assay to Explore Cytotoxicity in THP-1 Cells of Compounds that Modulate Mycobacterium tuberculosis in Media Containing Glycerol versus Media without Glycerol (2).; format: functional
[21] = Vero cell cytotoxicity, cytotoxicity control for M. tuberculosis inhibitor project, purified and synthesized samples, set 3 (AID 504684); format: functional
[22] = HepG2 cell cytotoxicity, dose response, cytotoxicity control, set 3 (AID 504853); format: functional; conditions: Mycobacterium tuberculosis
[23] = Vero cell cytotoxicity, dose response, cytotoxicity control for M. tuberculosis growth inhibitor project, Vero cells, purified and synthesized compounds, set 5 (AID 504909); format: functional; conditions: Mycobacterium tuberculosis

Chain of Beta-galactosidase (Q8VNN2 whole entry): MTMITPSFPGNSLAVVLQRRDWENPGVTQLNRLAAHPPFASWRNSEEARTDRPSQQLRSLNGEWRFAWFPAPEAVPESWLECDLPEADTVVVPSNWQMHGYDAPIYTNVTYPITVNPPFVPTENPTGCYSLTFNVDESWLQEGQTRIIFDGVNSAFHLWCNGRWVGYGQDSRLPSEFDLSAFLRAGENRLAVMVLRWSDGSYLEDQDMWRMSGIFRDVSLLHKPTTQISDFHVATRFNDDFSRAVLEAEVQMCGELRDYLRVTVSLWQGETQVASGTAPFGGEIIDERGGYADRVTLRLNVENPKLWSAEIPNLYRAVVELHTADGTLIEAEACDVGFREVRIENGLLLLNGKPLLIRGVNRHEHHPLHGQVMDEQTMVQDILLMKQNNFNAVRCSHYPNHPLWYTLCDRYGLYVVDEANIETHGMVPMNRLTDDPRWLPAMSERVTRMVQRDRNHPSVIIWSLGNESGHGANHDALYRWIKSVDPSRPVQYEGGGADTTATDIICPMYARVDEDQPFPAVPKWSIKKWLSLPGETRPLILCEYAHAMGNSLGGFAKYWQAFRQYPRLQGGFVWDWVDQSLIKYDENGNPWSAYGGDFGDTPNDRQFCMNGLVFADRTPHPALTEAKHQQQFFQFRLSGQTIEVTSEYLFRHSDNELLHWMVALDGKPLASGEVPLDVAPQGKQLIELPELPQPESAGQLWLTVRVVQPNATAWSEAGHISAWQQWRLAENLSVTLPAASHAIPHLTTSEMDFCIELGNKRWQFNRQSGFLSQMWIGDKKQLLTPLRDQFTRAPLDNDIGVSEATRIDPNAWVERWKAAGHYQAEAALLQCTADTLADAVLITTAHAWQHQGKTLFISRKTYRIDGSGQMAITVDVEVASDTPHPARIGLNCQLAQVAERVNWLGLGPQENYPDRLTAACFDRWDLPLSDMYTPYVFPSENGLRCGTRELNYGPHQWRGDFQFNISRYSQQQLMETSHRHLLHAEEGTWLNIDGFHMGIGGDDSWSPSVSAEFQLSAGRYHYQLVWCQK
Chain of CAAX prenyl protease 1 (P47154 whole entry): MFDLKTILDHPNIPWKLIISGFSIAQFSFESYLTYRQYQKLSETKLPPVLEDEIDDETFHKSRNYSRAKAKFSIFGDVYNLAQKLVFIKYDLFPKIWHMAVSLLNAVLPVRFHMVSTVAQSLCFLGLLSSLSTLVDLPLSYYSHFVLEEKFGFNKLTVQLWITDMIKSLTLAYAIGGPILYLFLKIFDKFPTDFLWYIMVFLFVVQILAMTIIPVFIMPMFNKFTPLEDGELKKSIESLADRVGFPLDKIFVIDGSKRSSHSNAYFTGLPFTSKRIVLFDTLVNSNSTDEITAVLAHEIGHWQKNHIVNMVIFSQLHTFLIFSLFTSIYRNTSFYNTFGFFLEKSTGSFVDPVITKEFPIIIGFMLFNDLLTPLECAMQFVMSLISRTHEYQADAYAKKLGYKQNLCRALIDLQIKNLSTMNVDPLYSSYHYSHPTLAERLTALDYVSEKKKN
Chain of Beta Lactamase (Q932Y6 whole entry, the tested form may be a part): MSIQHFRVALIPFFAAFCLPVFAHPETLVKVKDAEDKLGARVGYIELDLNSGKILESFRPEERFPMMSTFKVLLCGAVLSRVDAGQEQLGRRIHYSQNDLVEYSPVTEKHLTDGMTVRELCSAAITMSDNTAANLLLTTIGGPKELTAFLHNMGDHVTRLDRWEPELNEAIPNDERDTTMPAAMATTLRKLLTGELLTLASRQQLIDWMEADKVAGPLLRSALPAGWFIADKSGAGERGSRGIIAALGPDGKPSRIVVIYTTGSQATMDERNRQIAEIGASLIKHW
Chain of Large T antigen (P03070 whole entry): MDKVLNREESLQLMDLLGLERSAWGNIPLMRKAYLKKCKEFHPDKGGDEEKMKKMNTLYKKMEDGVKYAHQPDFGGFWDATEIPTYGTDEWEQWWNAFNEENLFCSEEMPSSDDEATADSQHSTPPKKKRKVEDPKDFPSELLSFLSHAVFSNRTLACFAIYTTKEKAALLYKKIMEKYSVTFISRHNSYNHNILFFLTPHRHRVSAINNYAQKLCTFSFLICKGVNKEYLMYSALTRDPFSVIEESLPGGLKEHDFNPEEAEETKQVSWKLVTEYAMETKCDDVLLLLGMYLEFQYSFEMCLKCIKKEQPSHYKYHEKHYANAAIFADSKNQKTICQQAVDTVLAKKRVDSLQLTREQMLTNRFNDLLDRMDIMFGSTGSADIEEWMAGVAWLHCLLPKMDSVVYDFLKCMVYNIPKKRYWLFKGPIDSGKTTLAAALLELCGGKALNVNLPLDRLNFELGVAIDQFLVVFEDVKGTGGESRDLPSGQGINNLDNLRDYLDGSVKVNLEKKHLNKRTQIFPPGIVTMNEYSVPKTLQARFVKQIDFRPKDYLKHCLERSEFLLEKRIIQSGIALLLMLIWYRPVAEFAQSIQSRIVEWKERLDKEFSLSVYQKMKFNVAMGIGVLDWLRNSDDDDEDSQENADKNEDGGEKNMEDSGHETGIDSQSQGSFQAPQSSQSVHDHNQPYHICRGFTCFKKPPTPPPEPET
Chain of Melanin-concentrating hormone receptor 1 (Q99705 whole entry): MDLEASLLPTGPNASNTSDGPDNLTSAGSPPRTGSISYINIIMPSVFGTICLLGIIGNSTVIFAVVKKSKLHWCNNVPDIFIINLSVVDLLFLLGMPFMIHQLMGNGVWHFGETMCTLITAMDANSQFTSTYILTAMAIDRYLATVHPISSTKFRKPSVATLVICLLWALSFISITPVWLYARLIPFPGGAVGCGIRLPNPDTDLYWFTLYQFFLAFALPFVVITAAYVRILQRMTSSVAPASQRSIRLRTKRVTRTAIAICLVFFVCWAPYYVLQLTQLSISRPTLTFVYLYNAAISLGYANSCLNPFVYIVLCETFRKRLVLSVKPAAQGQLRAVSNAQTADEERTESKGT

With `CCn1nc(C)cc1-c1nnc(Sc2ncc([N+](=O)[O-])s2)n1C` the EC50 (BJ [1]) was 3.46 µM (inconclusive), the EC50 (Beta-galactosidase) was > 40 µM (inactive) and the EC50 [2] was 7.07 µM (active). The EC50 (BJ [3]) was 7.27 µM (active), the IC50 (Large T antigen) was 17.6 µM (active) and the IC50 [4] was 8.13 µM (active). The IC50 (Beta Lactamase) was 46 µM (inactive), the IC50 [5] was 0.802 µM (active) and the IC50 [6] was 5.36 µM (active). The IC50 [7] was 3.76 µM (active), the IC50 (CHO) was 1.08 µM (active) and the EC50 [8] was 2.9 µM (inconclusive). For the same compound, the EC50 [9] was 5.37 µM (active), the EC50 [10] was 0.759 µM (active) and the EC50 (BJ [11]) was 2.09 µM (active). For the same compound, the EC50 (Streptococcus) was 12.4 µM (active), the EC50 (Streptokinase A) was > 150 µM (not active) and the EC50 [12] was 3.07 µM (active).
With `N#Cc1cccc(C(C#N)c2c(Br)cnn(Cc3cccc4ccccc34)c2=O)c1` (stereo unspecified) the IC50 [13] was ~0.693 µM (active) and the IC50 [14] was ~0.693 µM (active).
With `Cc1cc(Br)ccc1NC(=O)c1cnc(N2CCN(c3ccccn3)CC2)c2ccccc12` the CC50 [15] was 82 µM (active), the CC50 [16] was > 40 µM (active) and the CC50 [17] was 39.8 µM (active). For the same compound, the AC50 (CAAX prenyl protease 2) was 8.93 µM (active), the CC50 [18] was 13.2 µM (active) and the AC50 (CAAX prenyl protease 1) was 7.54 µM (active). For the same compound, the CC50 [19] was > 50 µM (active), the CC50 [20] was 86 µM (active) and the CC50 [21] was 46.3 µM (active). The CC50 [22] was > 50 µM (active) and the CC50 [23] was > 100 µM (active).
